Results reported in PubChem BioAssay AID256 (DTP/NCI, 2004).
“And” between values parts separate entries of the source, which are not always exact repeats. Identical values can stand only once. Toxic doses and inconclusive results are not listed.

System: CD2F1 mice, L1210 leukemia ip, survival T/C
Assay: NCI In Vivo Anticancer Drug Screen. Data for tumor model L1210 Leukemia (intraperitoneal) in CD2F1 (CDF1) mice
Conditions: endpoint: mean survival time, higher = longer survival
Outline: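 Read-out first: treated-group measurement over vehicle-control measurement, expressed as a ratio. Animals bore a transplanted tumor line and were dosed with compound or vehicle.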

SMILES: CC(=O)NC(CCC(=O)C=[N+]=N)C(=O)O (stereo unspecified)
- T/C (dose: 0.01 mg/kg/injection, schedule: Q03HX016 (ip), vehicle: saline): 97 % of control
- T/C (dose: 0.03 mg/kg/injection, schedule: Q03HX008 (ip), vehicle: saline): 95 % of control
- T/C (dose: 0.04 mg/kg/injection, schedule: Q03HX016 (ip), vehicle: saline): 97 % of control
- T/C (dose: 0.06 mg/kg/injection, schedule: Q03HX008 (ip), vehicle: saline): 97 % of control
- T/C (dose: 0.06 mg/kg/injection, schedule: Q03HX016 (ip), vehicle: saline): 94 % of control
- T/C (dose: 0.13 mg/kg/injection, schedule: Q01DX005 (iv), vehicle: saline): 98 % of control
- T/C (dose: 0.13 mg/kg/injection, schedule: Q01DX009 (ip), vehicle: saline): 103 % of control
- T/C (dose: 0.13 mg/kg/injection, schedule: Q01DX009 (oral), vehicle: saline): 102 % of control
- T/C (dose: 0.13 mg/kg/injection, schedule: Q03HX008 (ip), vehicle: saline): 104 % of control
- T/C (dose: 0.13 mg/kg/injection, schedule: Q03HX016 (ip), vehicle: saline): 106 % of control
- T/C (dose: 0.13 mg/kg/injection, schedule: Q03HX024 (ip), vehicle: saline): 90 % of control
- T/C (dose: 0.13 mg/kg/injection, schedule: Q04DX003 (ip), vehicle: saline): 101 % of control
- T/C (dose: 0.13 mg/kg/injection, schedule: Q08DX002 (ip), vehicle: saline): 94 % of control
- T/C (dose: 0.25 mg/kg/injection, schedule: Q01DX001 (ip), vehicle: saline): 92 % of control
- T/C (dose: 0.25 mg/kg/injection, schedule: Q01DX001 (iv), vehicle: saline): 103 % of control
- T/C (dose: 0.25 mg/kg/injection, schedule: Q01DX005 (iv), vehicle: saline): 106 % of control
- T/C (dose: 0.25 mg/kg/injection, schedule: Q01DX009 (ip), vehicle: saline): 112 % of control
- T/C (dose: 0.25 mg/kg/injection, schedule: Q01DX009 (oral), vehicle: saline): 113 % of control
- T/C (dose: 0.25 mg/kg/injection, schedule: Q03HX008 (ip), vehicle: saline): 115 % of control and 122 % of control
- T/C (dose: 0.25 mg/kg/injection, schedule: Q03HX024 (ip), vehicle: saline): 100 % of control
- T/C (dose: 0.25 mg/kg/injection, schedule: Q04DX003 (ip), vehicle: saline): 101 % of control
- T/C (dose: 0.25 mg/kg/injection, schedule: Q08DX002 (ip), vehicle: saline): 97 % of control
- T/C (dose: 0.4 mg/kg/injection, schedule: Q01DX009 (ip), vehicle: water): 166 % of control
- T/C (dose: 0.5 mg/kg/injection, schedule: Q01DX001 (ip), vehicle: saline): 97 % of control
- T/C (dose: 0.5 mg/kg/injection, schedule: Q01DX001 (iv), vehicle: saline): 103 % of control
- T/C (dose: 0.5 mg/kg/injection, schedule: Q01DX005 (iv), vehicle: saline): 118 % of control
- T/C (dose: 0.5 mg/kg/injection, schedule: Q04DX003 (ip), vehicle: saline): 106 % of control
- T/C (dose: 0.5 mg/kg/injection, schedule: Q08DX002 (ip), vehicle: saline): 104 % of control
- T/C (dose: 0.8 mg/kg/injection, schedule: Q01DX009 (ip), vehicle: water): 115 % of control
- T/C (dose: 1.0 mg/kg/injection, schedule: Q01DX001 (ip), vehicle: saline): 106 % of control
- T/C (dose: 1.0 mg/kg/injection, schedule: Q01DX001 (iv), vehicle: saline): 107 % of control
- T/C (dose: 1.0 mg/kg/injection, schedule: Q01DX001 (oral), vehicle: saline): 110 % of control
- T/C (dose: 1.0 mg/kg/injection, schedule: Q01DX009 (ip), vehicle: saline): 119 % of control
- T/C (dose: 1.0 mg/kg/injection, schedule: Q01DX009 (oral), vehicle: saline): 115 % of control
- T/C (dose: 1.0 mg/kg/injection, schedule: Q03HX016 (ip), vehicle: saline): 151 % of control
- T/C (dose: 1.0 mg/kg/injection, schedule: Q03HX024 (ip), vehicle: saline): 181 % of control
- T/C (dose: 1.0 mg/kg/injection, schedule: Q04DX003 (ip), vehicle: saline): 117 % of control
- T/C (dose: 1.0 mg/kg/injection, schedule: Q06HX012 (ip), vehicle: saline): 158 % of control
- T/C (dose: 1.0 mg/kg/injection, schedule: Q08DX002 (ip), vehicle: saline): 111 % of control
- T/C (dose: 2.0 mg/kg/injection, schedule: Q01DX001 (ip), vehicle: saline): 104 % of control and 109 % of control
- T/C (dose: 2.0 mg/kg/injection, schedule: Q01DX001 (iv), vehicle: saline): 107 % of control
- T/C (dose: 2.0 mg/kg/injection, schedule: Q01DX001 (oral), vehicle: saline): 120 % of control
- T/C (dose: 2.0 mg/kg/injection, schedule: Q01DX005 (ip), vehicle: saline): 109 % of control
- T/C (dose: 2.0 mg/kg/injection, schedule: Q01DX005 (iv), vehicle: saline): 120 % of control
- T/C (dose: 2.0 mg/kg/injection, schedule: Q03HX016 (ip), vehicle: saline): 152 % of control
- T/C (dose: 2.0 mg/kg/injection, schedule: Q03HX024 (ip), vehicle: saline): 108 % of control
- T/C (dose: 2.0 mg/kg/injection, schedule: Q04DX003 (ip), vehicle: saline): 121 % of control and 124 % of control
- T/C (dose: 2.0 mg/kg/injection, schedule: Q06HX008 (ip), vehicle: saline): 156 % of control
- T/C (dose: 2.0 mg/kg/injection, schedule: Q06HX012 (ip), vehicle: saline): 151 % of control
- T/C (dose: 2.0 mg/kg/injection, schedule: Q08DX002 (ip), vehicle: saline): 113 % of control and 107 % of control
- T/C (dose: 4.0 mg/kg/injection, schedule: Q01DX001 (ip), vehicle: saline): 112 % of control
- T/C (dose: 4.0 mg/kg/injection, schedule: Q01DX001 (iv), vehicle: saline): 117 % of control
- T/C (dose: 4.0 mg/kg/injection, schedule: Q01DX001 (oral), vehicle: saline): 115 % of control
- T/C (dose: 4.0 mg/kg/injection, schedule: Q01DX005 (ip), vehicle: saline): 102 % of control
- T/C (dose: 4.0 mg/kg/injection, schedule: Q06HX008 (ip), vehicle: saline): 152 % of control
- T/C (dose: 4.0 mg/kg/injection, schedule: Q06HX012 (ip), vehicle: saline): 113 % of control
- T/C (dose: 4.0 mg/kg/injection, schedule: Q08DX002 (ip), vehicle: saline): 111 % of control
- T/C (dose: 8.0 mg/kg/injection, schedule: Q01DX001 (ip), vehicle: saline): 116 % of control
- T/C (dose: 8.0 mg/kg/injection, schedule: Q01DX001 (oral), vehicle: saline): 116 % of control
- T/C (dose: 8.0 mg/kg/injection, schedule: Q08DX002 (ip), vehicle: saline): 114 % of control
- T/C (dose: 16.0 mg/kg/injection, schedule: Q04DX003 (ip), vehicle: saline): 154 % of control
